Test [1] relates to zebrafish vasopressin2 receptor (ZF V2R). It is filed as cell-based, zebrafish (Danio rerio). The following applies: for EC50: read-out: Mean EC50 ZF V2R.
For test [2], the system named is zebrafish vasopressin1-a2 receptor (ZF V1a2R). In kind it is cell-based, zebrafish (Danio rerio).
For test [3], the target named is T1, zebrafish oxytocin/isotocin receptor (ZF oxy/isoR) (Danio rerio, UniProt E4W699).
T1 construct: host or cells: COS-1
T1 sequence (E4W699 1-388): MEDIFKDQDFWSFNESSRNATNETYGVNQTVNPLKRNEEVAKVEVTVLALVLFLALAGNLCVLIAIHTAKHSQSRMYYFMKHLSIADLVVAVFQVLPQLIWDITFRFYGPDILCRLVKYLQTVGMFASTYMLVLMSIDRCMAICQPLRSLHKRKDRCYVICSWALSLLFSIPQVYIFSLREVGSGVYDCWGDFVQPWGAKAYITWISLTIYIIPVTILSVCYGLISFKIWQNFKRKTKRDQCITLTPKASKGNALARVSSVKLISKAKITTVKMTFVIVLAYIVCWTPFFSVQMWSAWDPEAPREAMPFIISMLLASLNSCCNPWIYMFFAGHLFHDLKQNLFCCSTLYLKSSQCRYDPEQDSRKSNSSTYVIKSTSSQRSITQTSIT
As to the kind of experiment: cell-based. It is filed as cell-based.

Test [4] deals with T2, human vasopressin2 receptor (hV2R) (Homo sapiens, UniProt P30518).
T2 construct: host or cells: COS-1
T2 sequence (P30518 whole entry): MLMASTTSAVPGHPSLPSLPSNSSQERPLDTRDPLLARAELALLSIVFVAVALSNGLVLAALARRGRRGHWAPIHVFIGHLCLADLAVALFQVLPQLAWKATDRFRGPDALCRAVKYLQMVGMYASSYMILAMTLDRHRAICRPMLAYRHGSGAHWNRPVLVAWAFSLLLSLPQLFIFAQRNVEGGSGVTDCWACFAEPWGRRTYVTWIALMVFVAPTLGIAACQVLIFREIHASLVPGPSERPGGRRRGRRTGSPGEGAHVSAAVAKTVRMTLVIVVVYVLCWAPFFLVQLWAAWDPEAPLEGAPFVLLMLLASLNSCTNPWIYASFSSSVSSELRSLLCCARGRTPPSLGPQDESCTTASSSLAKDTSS
As to the kind of experiment: cell-based.

The target of test [5] is T3, human vasopressin-1b receptor (hV1bR) (Homo sapiens, UniProt P47901).
T3 construct: host or cells: COS-1
T3 sequence (P47901 1-424): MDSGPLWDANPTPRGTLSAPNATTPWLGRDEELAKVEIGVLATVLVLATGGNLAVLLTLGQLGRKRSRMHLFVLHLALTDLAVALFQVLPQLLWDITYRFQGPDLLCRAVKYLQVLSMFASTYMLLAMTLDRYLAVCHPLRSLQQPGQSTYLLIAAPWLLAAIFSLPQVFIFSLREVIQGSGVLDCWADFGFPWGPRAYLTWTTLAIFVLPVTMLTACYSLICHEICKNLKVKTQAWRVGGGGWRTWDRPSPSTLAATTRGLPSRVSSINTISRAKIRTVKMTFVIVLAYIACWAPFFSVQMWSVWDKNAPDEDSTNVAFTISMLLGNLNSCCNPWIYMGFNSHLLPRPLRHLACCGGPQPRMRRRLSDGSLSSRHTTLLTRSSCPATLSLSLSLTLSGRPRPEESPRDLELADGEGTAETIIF
As to the kind of experiment: cell-based. It is filed as cell-based.

In test [6] the target is T4, human oxytocin receptor (hOTR) (Homo sapiens, UniProt P30559).
T4 construct: host or cells: COS-1
T4 sequence (P30559 1-389): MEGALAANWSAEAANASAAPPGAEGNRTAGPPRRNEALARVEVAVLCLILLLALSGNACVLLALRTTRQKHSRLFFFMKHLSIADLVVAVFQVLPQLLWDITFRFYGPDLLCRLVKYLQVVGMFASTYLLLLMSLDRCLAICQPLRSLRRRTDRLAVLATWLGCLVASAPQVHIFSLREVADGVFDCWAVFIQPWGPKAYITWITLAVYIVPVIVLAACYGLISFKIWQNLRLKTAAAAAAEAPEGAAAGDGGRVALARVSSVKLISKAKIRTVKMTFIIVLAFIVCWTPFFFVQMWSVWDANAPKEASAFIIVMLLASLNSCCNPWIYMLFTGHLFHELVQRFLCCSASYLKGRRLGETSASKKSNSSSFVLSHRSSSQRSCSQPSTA
As to the kind of experiment: cell-based. It is filed as cell-based.

Test [7] deals with T5, human vasopressin-1a receptor (hV1aR) (Homo sapiens, UniProt P37288).
T5 construct: host or cells: COS-1
T5 sequence (P37288 whole entry): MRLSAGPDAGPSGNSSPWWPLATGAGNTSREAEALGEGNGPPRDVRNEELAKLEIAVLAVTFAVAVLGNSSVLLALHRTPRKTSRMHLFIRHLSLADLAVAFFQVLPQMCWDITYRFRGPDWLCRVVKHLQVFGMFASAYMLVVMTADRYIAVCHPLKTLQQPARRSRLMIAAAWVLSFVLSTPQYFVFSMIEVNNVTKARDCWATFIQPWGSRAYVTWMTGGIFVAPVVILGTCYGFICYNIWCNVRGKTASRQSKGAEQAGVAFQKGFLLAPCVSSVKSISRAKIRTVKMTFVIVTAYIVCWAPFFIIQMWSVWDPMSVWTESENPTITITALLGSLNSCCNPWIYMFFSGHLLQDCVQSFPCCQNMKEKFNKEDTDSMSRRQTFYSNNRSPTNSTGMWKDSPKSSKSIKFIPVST
As to the kind of experiment: cell-based.

Test [8] concerns the target zebrafish vasopressin1-a1 receptor (ZF V1a1R). It is filed as cell-based, zebrafish (Danio rerio).

Residues, ends and D or L forms follow the SMILES beside them. Bounds are passed on as bounds.

Usually EC50 stands for the concentration needed to bring the measured effect to its halfway point.

`CC[C@H](C)[C@@H]1NC(=O)[C@H](Cc2ccccc2)NC(=O)[C@@H](N)CSSC[C@@H](C(=O)N2CCC[C@H]2C(=O)N[C@@H](CCCCN)C(=O)NCC(N)=O)NC(=O)[C@H](CC(N)=O)NC(=O)[C@H](CCCNC(=N)N)NC1=O` [Con-G, conopressin-G] (HELM PEPTIDE1{C.F.I.R.N.C.P.K.G.[am]}$PEPTIDE1,PEPTIDE1,1:R3-6:R3$$$V2.0): the “Selectivity ZF V2R” value in test [1] was “ZF V1a1R (x42.9) > ZF V1a2R (x10.3) > hV1bR (x8.8) > ZF V2R (x7.5) > hV1aR (x3.7) > hV2R (x1.5) > ZF oxy (x1.3) > hOTR”. Moreover, in test [2], the “Selectivity ZF V1a2R” value is on record as “ZF V1a1R (x42.9) > ZF V1a2R (x10.3) > hV1bR (x8.8) > ZF V2R (x7.5) > hV1aR (x3.7) > hV2R (x1.5) > ZF oxy (x1.3) > hOTR” and the “response of control at ZF V1a2R (partial agonist)” value came out at 69%. For the same compound, in test [3], the “Selectivity ZF oxy” value is “ZF V1a1R (x42.9) > ZF V1a2R (x10.3) > hV1bR (x8.8) > ZF V2R (x7.5) > hV1aR (x3.7) > hV2R (x1.5) > ZF oxy (x1.3) > hOTR” and the “response of control at ZF oxy/isoR (partial agonist)” value is 62%. Further, in test [4], the EC50 stood at 0.3 µM and the “Selectivity hV2R” value is reported as “ZF V1a1R (x42.9) > ZF V1a2R (x10.3) > hV1bR (x8.8) > ZF V2R (x7.5) > hV1aR (x3.7) > hV2R (x1.5) > ZF oxy (x1.3) > hOTR”. Further, in test [5], the midpoint of the response, the EC50, lay at 0.052 µM and the “Selectivity hV1bR” value is on record as “ZF V1a1R (x42.9) > ZF V1a2R (x10.3) > hV1bR (x8.8) > ZF V2R (x7.5) > hV1aR (x3.7) > hV2R (x1.5) > ZF oxy (x1.3) > hOTR”. For the same compound, the “response of control at hOTR (partial agonist)” value in test [6] is recorded as 28%. Moreover, in test [7], the EC50 came out at 0.123 µM and the “Selectivity hV1aR” value is given as “ZF V1a1R (x42.9) > ZF V1a2R (x10.3) > hV1bR (x8.8) > ZF V2R (x7.5) > hV1aR (x3.7) > hV2R (x1.5) > ZF oxy (x1.3) > hOTR”. For the same compound, in test [8], the EC50 is 0.01 µM and the “Selectivity ZF V1a1R” value is recorded as “ZF V1a1R (x42.9) > ZF V1a2R (x10.3) > hV1bR (x8.8) > ZF V2R (x7.5) > hV1aR (x3.7) > hV2R (x1.5) > ZF oxy (x1.3) > hOTR”.

As for `NC(=O)C[C@@H]1NC(=O)CNC(=O)[C@@H]2CCCN2C(=O)[C@H](Cc2ccccc2)NC(=O)[C@@H](N)CSSC[C@@H](C(=O)N2CCC[C@H]2C(=O)N[C@@H](CC(=O)O)C(=O)N[C@@H](CO)C(N)=O)NC1=O` [Con-M1am, conopressin-M1] (HELM PEPTIDE1{C.F.P.G.N.C.P.D.S.[am]}$PEPTIDE1,PEPTIDE1,1:R3-6:R3$$$V2.0), the 50% effective concentration (EC50) in test [1] was more than 100 µM; in test [2], more than 100 µM; in test [3], more than 100 µM; in test [4] it was more than 100 µM; in test [5] it was 38.2 µM; in test [6], more than 100 µM. In test [7], this compound came in with an EC50 of more than 100 µM. Further, the “response of control at hV1b (weak and partial agonist)” value in test [5] is 26%.

Regarding `CC(C)C[C@@H]1NC(=O)[C@H](Cc2ccccc2)NC(=O)[C@@H](N)CSSC[C@@H](C(=O)N2CCC[C@H]2C(=O)N[C@@H](CC(=O)O)C(=O)N[C@@H](CO)C(N)=O)NC(=O)[C@H](CC(N)=O)NC(=O)CNC1=O` [Con-M2am, conopressin-M2] (HELM PEPTIDE1{C.F.L.G.N.C.P.D.S.[am]}$PEPTIDE1,PEPTIDE1,1:R3-6:R3$$$V2.0), the EC50 in test [1] was 1.72 µM; in test [2], more than 100 µM; in test [3], more than 100 µM; in test [4], more than 100 µM; in test [5] it was more than 100 µM; in test [6], more than 100 µM. Moreover, the concentration for a half-maximal effect (EC50) in test [7] and in test [8] was more than 100 µM each time.

For the origin of these results see paper PMC7143535, “Synthesis, Pharmacological and Structural Characterization of Novel Conopressins from Conus miliaris” (Marine Drugs, 2020).
